# Experimental data reported in patent US4734410A, “Lactam derivatives and their use as hypotensive agents” (Sankyo Company Limited, priority 1985, dated 1988).
# Molecular target: T1, ACE (Oryctolagus cuniculus, UniProt P12822)
# T1 construct: ACE extracted from rabbit lungs; from tissue; host or cells: rabbit lung
# T1 sequence (P12822 34-1310): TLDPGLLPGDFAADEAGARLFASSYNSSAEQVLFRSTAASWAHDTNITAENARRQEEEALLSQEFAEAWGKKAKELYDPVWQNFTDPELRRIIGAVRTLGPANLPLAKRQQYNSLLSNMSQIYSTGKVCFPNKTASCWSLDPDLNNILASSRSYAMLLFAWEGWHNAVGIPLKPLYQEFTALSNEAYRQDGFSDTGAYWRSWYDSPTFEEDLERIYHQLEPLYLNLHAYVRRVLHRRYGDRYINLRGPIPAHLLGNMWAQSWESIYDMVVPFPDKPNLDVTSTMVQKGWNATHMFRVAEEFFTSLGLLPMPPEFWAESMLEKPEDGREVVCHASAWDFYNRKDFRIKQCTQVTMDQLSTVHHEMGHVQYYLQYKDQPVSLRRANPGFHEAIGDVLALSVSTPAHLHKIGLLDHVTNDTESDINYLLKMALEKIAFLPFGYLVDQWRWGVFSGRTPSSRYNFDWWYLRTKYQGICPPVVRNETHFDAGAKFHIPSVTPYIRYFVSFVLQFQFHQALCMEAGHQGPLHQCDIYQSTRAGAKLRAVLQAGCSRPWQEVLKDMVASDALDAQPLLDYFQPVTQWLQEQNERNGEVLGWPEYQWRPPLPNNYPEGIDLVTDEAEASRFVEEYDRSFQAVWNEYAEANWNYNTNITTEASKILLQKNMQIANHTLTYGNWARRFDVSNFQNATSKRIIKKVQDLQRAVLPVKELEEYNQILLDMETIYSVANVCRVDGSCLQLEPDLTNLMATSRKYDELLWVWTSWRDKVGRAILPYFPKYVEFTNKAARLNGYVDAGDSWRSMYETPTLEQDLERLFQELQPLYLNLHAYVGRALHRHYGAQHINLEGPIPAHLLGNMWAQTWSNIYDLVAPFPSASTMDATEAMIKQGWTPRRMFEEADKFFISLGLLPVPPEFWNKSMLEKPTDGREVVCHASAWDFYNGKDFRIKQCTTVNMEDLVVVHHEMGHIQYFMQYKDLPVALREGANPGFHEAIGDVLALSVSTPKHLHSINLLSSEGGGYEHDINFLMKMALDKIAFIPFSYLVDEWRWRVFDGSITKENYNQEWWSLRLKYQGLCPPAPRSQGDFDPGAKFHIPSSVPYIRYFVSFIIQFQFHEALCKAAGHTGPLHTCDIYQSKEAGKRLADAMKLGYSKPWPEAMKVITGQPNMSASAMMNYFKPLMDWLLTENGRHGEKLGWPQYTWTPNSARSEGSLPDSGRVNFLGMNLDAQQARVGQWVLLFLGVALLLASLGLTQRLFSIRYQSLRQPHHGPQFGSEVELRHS
# Experiment: in vitro inhibition of ACE (procedure of D. W. Cushman et al., hippurylhistidylleucine substrate)
# Format: biochemical
# Details: ACE extracted from rabbit lungs, pH 8.3, 37° C., 30 minutes, hippuric acid at 228 nm
# Text: As noted above, the compounds of the present invention have the ability to inhibit the activity of ACE, the enzyme which converts angiotensin I to angiotensin II and also inactivates bradykinin. The physiological activity of the compounds of the invention can be evaluated by determining the concentration of the test compound required to inhibit the activity of ACE by 50% in vitro (IC50), for example by the procedure of D. W. Cushman et al. [Biochemical Pharmacology, 20, 1637 (1971)]. Specifically, solutions of ACE extracted from rabbit lungs and, as substrate, hippurylhistidylleucine, to which had been added the test compound at various concentrations, were added to a borate buffer solution containing sodium chloride, and the pH was adjusted to a value of 8.3. The enzymatic reaction was allowed to proceed at 37° C. for 30 minutes, after which time the reaction was terminated by adding 1N aqueous hydrochloric acid. The hippuric acid formed by this reaction was extracted with ethyl acetate and the solvent was then distilled from the extract. The residual hippuric acid was dissolved in water. The amount of hippuric acid in the resulting aqueous solution was determined by the absorbency to ultraviolet radiation at 228 nm. The resulting values were then plotted to form a curve indicating the relationship between the amount of hippuric acid formed and the concentration of the test compound. The IC50 value can be obtained by reading on this curve the concentration of the test compound which reduces the amount of hippuric acid formed to one half of that formed when no test compound is present.
row,Structure (SMILES),IC50 [nM]
1,"O=C(O)CN1C[C@H](c2ccccc2)CC[C@H](N[C@@H](CCc2ccccc2)C(=O)O)C1=O (single isomer, unassigned) [Test Compound B]",2
2,"O=C(O)CN1C[C@@H](c2ccc(F)cc2)CC[C@H](N[C@@H](CCc2ccccc2)C(=O)O)C1=O [Test Compound C, α-{3(S)-[1(S)-carboxy-3-phenylpropylamino]-6(R)-(p-fluorophenyl)-2-oxoperhydroazepin-1-yl}acetic acid]",1.7
3,"O=C(O)CN1C[C@@H](c2ccccc2)CC[C@H](N[C@@H](CCc2ccccc2)C(=O)O)C1=O (single isomer, unassigned) [Test Compound A]",1.4

# Test system: angiotensin I-induced hypertension
# Experiment: inhibitory effect on angiotensin I-induced hypertension in vivo after oral administration to rats
# Details: not given
# Protocol: In addition, the compounds of Examples 2, 3, 7, 10 and 12 were tested in vivo. Each of these test compounds was administered orally to rats and its inhibitory effect on angiotensin I-induced hypertension was determined.
row,Structure (SMILES),inhibitory effect on angiotensin I-induced hypertension
1,"CCOC(=O)[C@H](CCc1ccccc1)N[C@H]1CC[C@H](c2ccc(F)cc2)CN(CC(=O)O)C1=O.Cl [Example 7, α-{3(S)-[1(S)-Ethoxycarbonyl-3-phenylpropylamino]-6(R)-(p-fluorophenyl)-2-oxoperhydroazepin-1-yl}acetic acid hydrochloride]",strong and lasting inhibitory effects
2,"CCOC(=O)[C@H](CCc1ccccc1)N[C@H]1CC[C@@H](c2ccccc2)CN(CC(=O)O)C1=O.Cl (single isomer, unassigned) [Example 3]",strong and lasting inhibitory effects
3,"CCCCOC(=O)[C@H](CCc1ccccc1)N[C@H]1CC[C@H](c2ccc(F)cc2)CN(CC(=O)O)C1=O.Cl [Example 10, α-{3(S)-[1(S)-Butoxycarbonyl-3-phenylpropylamino]-6(R)-(p-fluorophenyl)-2-oxoperhydroazepin-1-yl}acetic acid hydrochloride]",strong and lasting inhibitory effects
4,"CCCCOC(=O)[C@H](CCc1ccccc1)N[C@H]1CC[C@H](c2ccccc2)CN(CC(=O)O)C1=O.Cl [Example 12, α-{3(S)-[1(S)-Butoxycarbonyl-3-phenylpropylamino]-2-oxo-6(R)-phenylperhydroazepin-1-yl}acetic acid hydrochloride]",strong and lasting inhibitory effects
5,"CCOC(=O)[C@H](CCc1ccccc1)N[C@H]1CC[C@H](c2ccccc2)CN(CC(=O)O)C1=O.Cl (single isomer, unassigned) [Example 2]",strong and lasting inhibitory effects
